For one series, the target named is T1, human D4.2 receptor (Homo sapiens, UniProt P21917, DEL265-296).
T1 construct: expressed in transfected cells; host or cells: CHO cells (membrane preparation)
T1 sequence (P21917 with tags, fused parts or gaps DEL265-296): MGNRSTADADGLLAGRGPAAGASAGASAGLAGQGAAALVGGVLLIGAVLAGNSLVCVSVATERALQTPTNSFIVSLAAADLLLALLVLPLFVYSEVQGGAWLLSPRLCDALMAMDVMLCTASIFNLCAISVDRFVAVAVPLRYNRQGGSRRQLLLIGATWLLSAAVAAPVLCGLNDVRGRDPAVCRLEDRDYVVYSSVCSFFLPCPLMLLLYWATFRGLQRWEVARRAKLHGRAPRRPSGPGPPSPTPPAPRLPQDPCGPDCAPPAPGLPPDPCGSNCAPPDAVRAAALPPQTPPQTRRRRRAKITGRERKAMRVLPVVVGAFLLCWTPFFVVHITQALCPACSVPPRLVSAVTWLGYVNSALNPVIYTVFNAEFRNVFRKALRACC
Description: Dopamine D4 receptor binding assay ([3H]spiperone). To be noted: CHO cell membrane expressing human D4.2 receptor; [3H]spiperone 0.5 nM; 27° C., 2 hours. As for the experimental part:
1. Dopamine D4 Receptor Binding Assay
Chinese hamster ovarium (CHO) cell membrane wherein human D4.2 receptor was expressed was used as a receptor preparation.
[^3H] spiperone was used as a [^3H]-labeled ligand.
Human D4.2 receptor binding assay: The (CHO) cell membrane wherein human D4.2 receptor was expressed, [^3H] spiperone (0.5 nM) and each test drug were incubated at 27° C. for 2 hours in 50 mM Tris-hydrochloric acid buffer (pH 7.4) containing 5 mM EDTA, 1.5 mM calcium chloride, 5 mM potassium chloride and 120 mM sodium chloride.
(§1) After completion of the reaction, the reaction mixture was filtered by suction through a glass filter (GF/B), and radioactivity in the filter paper was measured with a liquid scintillation spectrometer.
Binding under the reaction of [^3H] spiperone carried out in the presence of 10 μM haloperidol was defined as nonspecific binding of [^3H] spiperone, and the difference between the total binding and the nonspecific binding was defined as specific binding.

In series [1] the target is T2, Dopamine D2 receptor (rat striatum membrane) (Rattus norvegicus, UniProt P61169).
T2 construct: Rat striatum was homogenized in 50 mM Tris-hydrochloric acid buffer (pH 7.4); from tissue; host or cells: rat striatum
Nature of the series: Dopamine D2 receptor binding assay ([3H]raclopride). To be noted: [3H]raclopride 1 nM, 25° C., 1 hour. Here is the method: 2. Dopamine D2 Receptor Binding Assay
Rat striatum membrane was used as a receptor preparation.
[^3H] raclopride was used as a [^3H]-labeled ligand.
Preparation of the receptor preparation: Rat striatum was homogenized in 50 mM Tris-hydrochloric acid buffer (pH 7.4), and the homogenate was centrifuged at 48,000×g and the pellet was washed once with Tris-hydrochloric acid buffer. The washed pellet was suspended in 50 mM Tris-hydrochloric acid buffer (pH 7.4) containing 120 mM sodium chloride, 5 mM potassium chloride, 2 mM calcium chloride and 1 mM magnesium chloride, to obtain a membrane preparation.
Dopamine D2 receptor binding assay: The membrane preparation (0.5 mg protein/ml), [^3H] raclopride (1 nM) and each test drug were incubated at 25° C. for 1 hour.
as §1
Binding under the reaction of [^3H] raclopride carried out in the presence of 10 μM haloperidol was defined as nonspecific binding of [^3H] lacropirido, and the difference between the total binding and the nonspecific binding was defined as specific binding.

T2 sequence (P61169 whole entry): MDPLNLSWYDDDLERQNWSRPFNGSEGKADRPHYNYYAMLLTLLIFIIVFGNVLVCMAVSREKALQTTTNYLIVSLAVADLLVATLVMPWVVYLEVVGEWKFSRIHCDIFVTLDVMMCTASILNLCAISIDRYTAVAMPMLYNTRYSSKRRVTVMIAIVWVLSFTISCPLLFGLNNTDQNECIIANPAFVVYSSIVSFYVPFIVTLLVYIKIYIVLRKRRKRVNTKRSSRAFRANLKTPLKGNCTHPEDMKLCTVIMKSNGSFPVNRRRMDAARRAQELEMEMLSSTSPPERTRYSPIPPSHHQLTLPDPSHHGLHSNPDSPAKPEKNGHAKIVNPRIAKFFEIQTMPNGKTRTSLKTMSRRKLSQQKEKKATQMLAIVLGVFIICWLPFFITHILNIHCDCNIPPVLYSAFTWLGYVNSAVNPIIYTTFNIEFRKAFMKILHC

As to `Nc1nc(-c2ccc(F)cc2)c(CCN2CCC(c3coc4cc(F)ccc34)CC2)s1` [B-01, 2-amino-4-(4-fluorophenyl)-5-[2-[4-(6-fluorobenzofuran-3-yl)piperidin-1-yl]ethyl]thiazole], the IC50 at human D4.2 receptor came to 3.1 nM; in series [1] it was 67.3 nM.

On to `Oc1nc(-c2ccc(F)cc2)c(CCN2CCC(c3coc4cc(F)ccc34)CC2)s1` [B-06, 2-hydroxy-4-(4-fluorophenyl)-5-[2-[4-(6-fluorobenzofuran-3-yl)piperidin-1-yl]ethyl]thiazole], for which the melting point is 186 to 188 °C.

Turning to `Nc1nc(-c2ccc(F)cc2)c(CCN2CCC(c3c[nH]c4ccccc34)CC2)s1` [B-09], the melting point was in the range of 203 to 203.5 °C. On human D4.2 receptor, this molecule gave an IC50 of 2 nM. Further, in series [1], the concentration for half-maximal inhibition (IC50) came out at 81.1 nM.

In turn, `Cc1nc(-c2ccc(F)cc2)c(CCN2CCC(c3c[nH]c4ccccc34)CC2)s1` [B-11] returned a melting point of 165 to 167 °C. On human D4.2 receptor, this molecule returned an IC50 of 0.4 nM. The same molecule showed an IC50 in series [1] of 26.6 nM.

`Nc1nc(-c2ccc(F)cc2)c(CCN2CCC(n3cnc4cc(F)ccc43)CC2)s1` [B-25] registered a melting point of 282 to 284 °C. The molecule further had an IC50 at human D4.2 receptor of 32 nM. Further, in series [1], the IC50 is above 1000 nM.

Turning to `Nc1nc(-c2ccc(F)cc2)c(CCN2CCC(n3nnc4cc(F)ccc43)CC2)s1` [B-26, 2-amino-4-(4-fluorophenyl)-5-[2-[4-(5-fluoro-1H-benzotriazol-1-yl)piperidin-1-yl]ethyl]thiazole], the figures for the IC50 (at human D4.2 receptor; in series [1]) were 5.5 nM and 298 nM, respectively.

`Cc1nc(-c2ccc(F)cc2)c(CCN2CCC(n3nnc4cc(F)ccc43)CC2)s1` [B-29]: the melting point fell in the range of 145 to 146 °C. At human D4.2 receptor, this molecule gave an IC50 of 2.4 nM. This molecule returned a concentration for half-maximal inhibition (IC50) in series [1] of 206 nM.

The molecule `CSc1nc(-c2ccc(F)cc2)c(CCN2CCC(n3nnc4cc(F)ccc43)CC2)[nH]1` [C-03, 2-methylthio-4-(4-fluorophenyl)-5-[2-[4-(5-fluoro-1H-benzotriazol-1-yl)piperidin-1-yl]ethyl]imidazole] came in with a melting point of 223 to 224 °C.

The molecule `Fc1ccc(-c2[nH]ncc2CCN2CCC(c3csc4cc(F)ccc34)CC2)cc1` [Example 10, 5-(4-fluorophenyl)-4-[2-[4-(6-fluorobenzo[b]thiophen-3-yl)piperidin-1-yl]ethyl]pyrazole] yielded a melting point of 162 to 163 °C.

`Fc1ccc(-c2ncncc2CCN2CCC(c3csc4cc(F)ccc34)CC2)cc1` [Example 11, 6-(4-fluorophenyl)-5-[2-[4-(6-fluorobenzo[b]thiophen-3-yl)piperidin-1-yl]ethyl]pyrimidine]: the melting point lay within 123 to 124 °C.

For the origin of these results see patent publication US6806275B2, “Arylpiperidine derivatives and use thereof” (Nihon Nohyaku Co., Ltd., priority 1998, dated 2004).
